Measured values taken from ChEMBL document CHEMBL1147645, “Design and synthesis of 2,3,4,9-tetrahydro-1H-carbazole and 1,2,3,4-tetrahydro-cyclopenta[b]indole derivatives as non-nucleoside inhibitors of hepatitis C virus NS5B RNA-dependent RNA polymerase” (Bioorg Med Chem Lett, 2006).

system: Huh-7; assay: Cytotoxicity against Huh7 cells by MTS assay; type: functional, cell-based; conditions: Homo sapiens

Row | SMILES | IC50 [µM]
1 | CCCC1(C(=O)O)CCc2c1[nH]c1c(Cl)ccc(Cl)c21 (centres undefined) | 43

system: not listed separately; assay: Permeability at pH 7.4 by PAMPA assay; type: ADME; conditions: read-out: permeability

Row | SMILES | Papp [nm/s]
2 | CCCC1(C(=O)O)CCc2c1[nH]c1c(Cl)ccc(Cl)c21 (centres undefined) | 64.8

target: RNA-directed RNA polymerase (Hepacivirus hominis, UniProt O39930); assay: Inhibition of HCV 1b BK NS5B RNA polymerase; set-up: species or system Hepatitis C virus (isolate BK); conditions: not given
Sequence (O39930 whole entry): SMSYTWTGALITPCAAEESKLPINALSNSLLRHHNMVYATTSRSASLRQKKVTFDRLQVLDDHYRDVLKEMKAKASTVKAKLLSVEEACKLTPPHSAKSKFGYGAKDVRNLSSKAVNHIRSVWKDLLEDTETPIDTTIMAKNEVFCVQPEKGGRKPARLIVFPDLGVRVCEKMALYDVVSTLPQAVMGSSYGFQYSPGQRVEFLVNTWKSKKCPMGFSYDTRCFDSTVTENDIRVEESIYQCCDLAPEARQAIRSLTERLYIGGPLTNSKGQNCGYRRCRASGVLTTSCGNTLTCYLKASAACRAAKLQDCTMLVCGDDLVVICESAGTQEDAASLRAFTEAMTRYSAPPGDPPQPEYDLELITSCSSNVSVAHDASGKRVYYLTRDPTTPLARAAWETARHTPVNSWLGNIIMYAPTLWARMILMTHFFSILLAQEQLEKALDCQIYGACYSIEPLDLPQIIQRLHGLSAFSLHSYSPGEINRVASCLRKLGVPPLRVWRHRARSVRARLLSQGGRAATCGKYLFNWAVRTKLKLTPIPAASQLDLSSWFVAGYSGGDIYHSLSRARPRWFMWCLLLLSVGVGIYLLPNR

Row | SMILES | IC50 [µM]
3 | C=CCC1(C(=O)O)CCc2c1[nH]c1c(Cl)ccc(Cl)c21 (centres undefined) | 1.2
4 | CCCCC1(C(=O)O)CCc2c1[nH]c1c(Cl)ccc(Cl)c21 (centres undefined) | 1.9
5 | CCCC1(C(=O)O)CCc2c1[nH]c1c(C)cc(F)c(C#N)c21 (centres undefined) | 1.8
6 | CCCC1(CC(=O)O)CCCc2c1[nH]c1c(F)c(F)ccc21 (centres undefined) | > 33
7 | C=CCC1(C(=O)O)CCc2c1[nH]c1c(C)cc(F)c(C#N)c21 (centres undefined) | 6.3
8 | CCCC1(C(=O)O)CCCc2c1[nH]c1c(C)ccc(C#N)c21 (centres undefined) | 15
9 | CCCC1(CC(=O)O)CCCc2c1[nH]c1cc(F)cc(F)c21 (centres undefined) | 30
10 | CCCC1(C(=O)O)CCc2c1[nH]c1c(Cl)ccc(Cl)c21 (centres undefined) | 0.55
11 | CCCCC1(C(=O)O)CCc2c1[nH]c1c(C)cc(F)c(C#N)c21 (centres undefined) | 1.5
12 | CCCC1(CC(=O)O)CCCc2c1[nH]c1c(F)ccc(F)c21 (centres undefined) | > 33
13 | CCCC1(CC(=O)O)OCCc2c1[nH]c1c(C)ccc(C#N)c21 (centres undefined) | 0.33
14 | CCCC1(CC(=O)O)CCCc2c1[nH]c1c(C)ccc(C#N)c21 (centres undefined) | 2.1
15 | CCCC1(CC(=O)O)CCCc2c1[nH]c1c(F)ccc(C#N)c21 (centres undefined) | 2
16 | CCCC1(CC(=O)O)CCCc2c1[nH]c1c(Cl)cc(Br)cc21 (centres undefined) | > 33
17 | C=CCC1(C(=O)O)CCc2c1[nH]c1c(C)ccc(C#N)c21 (centres undefined) | 11
18 | CCCC1(CC(=O)O)CCCc2c1[nH]c1ccccc21 (centres undefined) | > 33
19 | C=CCC1(C(=O)O)CCc2c1[nH]c1c(F)ccc(C#N)c21 (centres undefined) | 14.5
20 | CCCC1(CC(=O)O)CCCc2c1[nH]c1ccc(Cl)cc21 (centres undefined) | > 33
21 | CCCCC1(C(=O)O)CCc2c1[nH]c1c(C)ccc(C#N)c21 (centres undefined) | 4.6
22 | CCCC1(C(=O)O)CCCc2c1[nH]c1c(F)ccc(C#N)c21 (centres undefined) | 10
23 | CCCCC1(C(=O)O)CCc2c1[nH]c1c(F)ccc(C#N)c21 (centres undefined) | 5.4
24 | CCCC1(CC(=O)O)CCCc2c1[nH]c1c(C#N)ccc(C#N)c21 (centres undefined) | 2.3
25 | CCCC1(C(=O)O)CCCc2c1[nH]c1c(Cl)ccc(C(F)(F)F)c21 (centres undefined) | 5.8
26 | CCCC1(C(=O)O)CCc2c1[nH]c1c(F)ccc(C#N)c21 (centres undefined) | 8.1
27 | CCCC1(CC(=O)O)CCCc2c1[nH]c1c(C(N)=O)ccc(C#N)c21 (centres undefined) | > 33
28 | CCCC1(C(=O)O)CCc2c1[nH]c1c(C)ccc(C#N)c21 (centres undefined) | 4.7
29 | CCCC1(C(=O)O)CCCc2c1[nH]c1c(Cl)ccc(Cl)c21 (centres undefined) | 3.2
